Laboratory results: ChEMBL document CHEMBL5518240 (J Med Chem, 2024)

Legend:
[1] = target: T1, Protein cereblon/CREB-binding protein (Homo sapiens, UniProt Q92793+Q96SW2); assay: PROTAC activity at CBP/CRBN in human VCaP cells assessed as protein degradation incubated for 4 hrs by Western blot analysis; type: cell-based
[2] = target: T1, Protein cereblon/CREB-binding protein; assay: PROTAC activity at CBP/CRBN in human VCaP cells assessed as maximal protein degradation at 1 uM incubated for 4 hrs by Western blot analysis relative to control; type: cell-based
[3] = target: T2, Protein cereblon/Histone acetyltransferase p300 (Homo sapiens, UniProt Q09472+Q96SW2); assay: PROTAC activity at p300/CRBN in human VCaP cells assessed as maximal protein degradation at 1 uM incubated for 4 hrs by Western blot analysis relative to control; type: cell-based
Target sequence in this assay (Q09472 2-2414 limits assumed): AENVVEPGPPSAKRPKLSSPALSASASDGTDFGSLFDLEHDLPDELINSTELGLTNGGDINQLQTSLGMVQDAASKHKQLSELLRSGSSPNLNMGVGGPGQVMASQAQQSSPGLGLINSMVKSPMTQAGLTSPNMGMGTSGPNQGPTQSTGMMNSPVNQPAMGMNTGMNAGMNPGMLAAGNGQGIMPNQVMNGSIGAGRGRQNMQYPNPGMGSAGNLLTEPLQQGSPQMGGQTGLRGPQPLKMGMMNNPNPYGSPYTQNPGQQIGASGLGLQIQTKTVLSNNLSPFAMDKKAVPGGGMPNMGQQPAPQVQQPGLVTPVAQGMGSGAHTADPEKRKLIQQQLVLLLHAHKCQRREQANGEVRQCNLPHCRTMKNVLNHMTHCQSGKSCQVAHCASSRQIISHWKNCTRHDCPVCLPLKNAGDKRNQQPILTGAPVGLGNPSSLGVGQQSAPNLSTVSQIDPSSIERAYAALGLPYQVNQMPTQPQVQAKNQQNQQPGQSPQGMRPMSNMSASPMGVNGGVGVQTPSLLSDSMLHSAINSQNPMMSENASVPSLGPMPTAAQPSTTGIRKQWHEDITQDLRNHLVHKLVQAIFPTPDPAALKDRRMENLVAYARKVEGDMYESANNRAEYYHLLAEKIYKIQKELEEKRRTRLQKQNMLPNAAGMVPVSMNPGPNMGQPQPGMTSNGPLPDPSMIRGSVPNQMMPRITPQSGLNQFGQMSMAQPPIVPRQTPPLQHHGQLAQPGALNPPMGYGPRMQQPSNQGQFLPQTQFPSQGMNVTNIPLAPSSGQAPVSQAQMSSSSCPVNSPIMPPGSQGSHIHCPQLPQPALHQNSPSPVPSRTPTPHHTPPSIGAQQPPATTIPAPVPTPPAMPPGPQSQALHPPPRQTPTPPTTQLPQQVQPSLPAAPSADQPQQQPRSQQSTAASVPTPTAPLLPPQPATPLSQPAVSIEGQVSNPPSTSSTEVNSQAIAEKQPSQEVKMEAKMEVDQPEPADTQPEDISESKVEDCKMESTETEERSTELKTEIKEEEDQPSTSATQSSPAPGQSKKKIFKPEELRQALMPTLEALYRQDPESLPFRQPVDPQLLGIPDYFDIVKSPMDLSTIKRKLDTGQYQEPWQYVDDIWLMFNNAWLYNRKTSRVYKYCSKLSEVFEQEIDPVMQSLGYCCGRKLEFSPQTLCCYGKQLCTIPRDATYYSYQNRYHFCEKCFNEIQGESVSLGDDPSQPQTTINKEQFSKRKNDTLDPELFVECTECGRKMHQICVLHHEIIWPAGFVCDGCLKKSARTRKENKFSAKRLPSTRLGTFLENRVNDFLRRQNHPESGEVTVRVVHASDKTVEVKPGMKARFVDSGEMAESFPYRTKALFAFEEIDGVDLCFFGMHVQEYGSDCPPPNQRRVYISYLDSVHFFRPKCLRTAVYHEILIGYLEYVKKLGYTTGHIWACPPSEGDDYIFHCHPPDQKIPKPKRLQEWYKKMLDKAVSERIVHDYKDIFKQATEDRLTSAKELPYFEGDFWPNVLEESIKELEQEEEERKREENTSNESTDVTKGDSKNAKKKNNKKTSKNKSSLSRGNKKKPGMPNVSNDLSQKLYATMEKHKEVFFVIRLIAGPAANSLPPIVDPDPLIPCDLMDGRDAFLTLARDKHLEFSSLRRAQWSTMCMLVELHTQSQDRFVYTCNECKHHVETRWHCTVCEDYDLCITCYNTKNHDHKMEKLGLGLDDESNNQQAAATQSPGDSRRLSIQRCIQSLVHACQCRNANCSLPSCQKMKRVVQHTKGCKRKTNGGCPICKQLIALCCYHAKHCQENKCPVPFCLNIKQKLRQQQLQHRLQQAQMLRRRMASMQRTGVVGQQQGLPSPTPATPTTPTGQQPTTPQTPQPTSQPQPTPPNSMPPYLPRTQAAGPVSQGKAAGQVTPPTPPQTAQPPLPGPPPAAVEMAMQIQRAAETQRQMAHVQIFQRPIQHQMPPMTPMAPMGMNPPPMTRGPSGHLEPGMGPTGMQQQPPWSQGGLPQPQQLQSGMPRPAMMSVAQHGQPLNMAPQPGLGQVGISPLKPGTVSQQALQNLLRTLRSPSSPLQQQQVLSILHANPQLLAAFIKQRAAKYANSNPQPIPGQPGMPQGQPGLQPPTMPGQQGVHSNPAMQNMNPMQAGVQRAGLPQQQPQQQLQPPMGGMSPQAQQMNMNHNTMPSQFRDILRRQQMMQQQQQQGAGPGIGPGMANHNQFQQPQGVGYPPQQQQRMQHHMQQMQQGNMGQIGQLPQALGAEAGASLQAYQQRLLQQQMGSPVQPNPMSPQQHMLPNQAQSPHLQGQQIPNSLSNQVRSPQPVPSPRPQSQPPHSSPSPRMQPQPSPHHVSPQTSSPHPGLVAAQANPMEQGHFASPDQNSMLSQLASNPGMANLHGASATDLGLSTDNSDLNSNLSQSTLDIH
Target sequence in this assay (Q96SW2 whole entry partner): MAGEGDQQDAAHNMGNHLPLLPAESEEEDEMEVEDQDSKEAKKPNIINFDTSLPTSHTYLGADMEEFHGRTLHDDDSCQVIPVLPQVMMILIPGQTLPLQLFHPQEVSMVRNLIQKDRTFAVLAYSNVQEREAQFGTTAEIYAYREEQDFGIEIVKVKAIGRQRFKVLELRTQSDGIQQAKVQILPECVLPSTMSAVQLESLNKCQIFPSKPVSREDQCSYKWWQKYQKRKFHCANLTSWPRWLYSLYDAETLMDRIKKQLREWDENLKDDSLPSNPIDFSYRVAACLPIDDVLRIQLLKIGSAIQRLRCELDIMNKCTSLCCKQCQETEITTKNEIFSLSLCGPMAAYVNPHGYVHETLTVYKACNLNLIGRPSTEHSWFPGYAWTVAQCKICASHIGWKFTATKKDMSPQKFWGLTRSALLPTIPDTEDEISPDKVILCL

[4] = target: T1, Protein cereblon/CREB-binding protein; assay: PROTAC activity at CBP/CRBN in AR positive human VCaP cells assessed as maximal protein degradation at 0.15 nM incubated for 4 hrs by Western blot analysis relative to control; type: cell-based
[5] = target: T1, Protein cereblon/CREB-binding protein; assay: PROTAC activity at CBP/CRBN in AR positive human VCaP cells assessed as maximal protein degradation at 0.46 nM incubated for 4 hrs by Western blot analysis relative to control; type: cell-based
[6] = target: T1, Protein cereblon/CREB-binding protein; assay: PROTAC activity at CBP/CRBN in AR positive human VCaP cells assessed as maximal protein degradation at 12.3 nM incubated for 4 hrs by Western blot analysis relative to control; type: cell-based
[7] = target: T1, Protein cereblon/CREB-binding protein; assay: PROTAC activity at CBP/CRBN in AR positive human VCaP cells assessed as maximal protein degradation at 111.1 nM incubated for 4 hrs by Western blot analysis relative to control; type: cell-based
[8] = target: T1, Protein cereblon/CREB-binding protein; assay: PROTAC activity at CBP/CRBN in AR positive human VCaP cells assessed as maximal protein degradation at 333.3 nM incubated for 4 hrs by Western blot analysis relative to control; type: cell-based
[9] = target: T1, Protein cereblon/CREB-binding protein; assay: PROTAC activity at CBP/CRBN in AR positive human VCaP cells assessed as maximal protein degradation at 1000 nM incubated for 4 hrs by Western blot analysis relative to control; type: cell-based
[10] = target: T2, Protein cereblon/Histone acetyltransferase p300; assay: PROTAC activity at p300/CRBN in AR positive human VCaP cells assessed as maximal protein degradation at 0.15 nM incubated for 4 hrs by Western blot analysis relative to control; type: cell-based
Target sequence in this assay (Q09472 2-2414 limits assumed): as the sequence (Q09472 2-2414 limits assumed) above
Target sequence in this assay (Q96SW2 whole entry partner): as the sequence (Q96SW2 whole entry partner) above

[11] = target: T2, Protein cereblon/Histone acetyltransferase p300; assay: PROTAC activity at p300/CRBN in AR positive human VCaP cells assessed as maximal protein degradation at 0.46 nM incubated for 4 hrs by Western blot analysis relative to control; type: cell-based
Target sequence in this assay (Q09472 2-2414 limits assumed): as the sequence (Q09472 2-2414 limits assumed) above
Target sequence in this assay (Q96SW2 whole entry partner): as the sequence (Q96SW2 whole entry partner) above

[12] = target: T2, Protein cereblon/Histone acetyltransferase p300; assay: PROTAC activity at p300/CRBN in AR positive human VCaP cells assessed as maximal protein degradation at 4.1 nM incubated for 4 hrs by Western blot analysis relative to control; type: cell-based
Target sequence in this assay (Q09472 2-2414 limits assumed): as the sequence (Q09472 2-2414 limits assumed) above
Target sequence in this assay (Q96SW2 whole entry partner): as the sequence (Q96SW2 whole entry partner) above

[13] = target: T2, Protein cereblon/Histone acetyltransferase p300; assay: PROTAC activity at p300/CRBN in AR positive human VCaP cells assessed as maximal protein degradation at 12.3 nM incubated for 4 hrs by Western blot analysis relative to control; type: cell-based
Target sequence in this assay (Q09472 2-2414 limits assumed): as the sequence (Q09472 2-2414 limits assumed) above
Target sequence in this assay (Q96SW2 whole entry partner): as the sequence (Q96SW2 whole entry partner) above

[14] = Half life in male ICR mouse at 1 mg/kg, iv measured upto 24 hrs by LC-MS/MS analysis; type: ADME, organism-based; settings: in vivo
[15] = AUC in male ICR mouse at 3 mg/kg, po measured upto 24 hrs by LC-MS/MS analysis; type: ADME, organism-based; settings: in vivo
[16] = target: T2, Protein cereblon/Histone acetyltransferase p300; assay: PROTAC activity at p300/CRBN in human 22Rv1 cells assessed as protein degradation incubated for 4 hrs by Western blot analysis; type: cell-based
VCaP [17] = assay: Potency index, ratio of ARV-110 IC50 to test compound IC50 for antiproliferative activity against AR positive human VCaP cells assessed inhibition of cell growth measured after 4 days by CellTiter-Glo Luminescent cell viability assay; type: functional; settings: time 4 day
LNCaP [18] = assay: Potency index, ratio of ARV-110 IC50 to test compound IC50 for antiproliferative activity against AR positive human LNCaP cells assessed inhibition of cell growth measured after 4 days by CellTiter-Glo Luminescent cell viability assay; type: functional; settings: time 4 day
[19] = target: T1, Protein cereblon/CREB-binding protein; assay: PROTAC activity at CBP/CRBN in human 22Rv1 cells assessed as reduction in protein level at 100 nM incubated for 4 hrs by multiplexed quantitative proteomics analysis relative to control; type: cell-based; set-up: scale not given: the % may be the effect or the level left
LNCaP [20] = assay: Reduction in AR gene expression in AR positive human LNCaP cells assessed as reduction in mRNA level measured after 6 hrs by qRT-PCT analysis relative to control; type: functional, cell-based; settings: dose 0.1-1000 nM
CWR22R [21] = assay: Reduction in AR gene expression in AR positive human 22Rv1 cells assessed as reduction in mRNA level measured after 6 hrs by qRT-PCT analysis relative to control; type: functional, cell-based; settings: dose 0.1-1000 nM
VCaP [22] = assay: Reduction in c-Myc gene expression in AR positive human VCaP cells assessed as reduction in mRNA level measured after 6 hrs by qRT-PCT analysis relative to control; type: functional, cell-based; settings: dose 0.1-1000 nM
CWR22R [23] = assay: Reduction in c-Myc gene expression in AR positive human 22Rv1 cells assessed as reduction in mRNA level measured after 6 hrs by qRT-PCT analysis relative to control; type: functional, cell-based; settings: dose 0.1-1000 nM
[24] = Reduction in AR gene expression in AR positive human VCaP cells assessed as reduction in mRNA level at 1 nM measured after 6 hrs by qRT-PCT analysis relative to control; type: functional
[25] = Reduction in KLK3 gene expression in AR positive human LNCaP cells assessed as reduction in mRNA level at 10 nM measured after 6 hrs by qRT-PCT analysis relative to control; type: functional
[26] = Reduction in AR gene expression in AR positive human LNCaP cells assessed as reduction in mRNA level at 10 nM measured after 6 hrs by qRT-PCT analysis relative to control; type: functional
[27] = Reduction in c-Myc gene expression in AR positive human 22Rv1 cells assessed as reduction in mRNA level at 10 nM measured after 6 hrs by qRT-PCT analysis relative to control; type: functional, CWR22R
[28] = target: T1, Protein cereblon/CREB-binding protein; assay: In vivo PROTAC activity at CBP/CRBN in human VCaP cells xenografted in SCID mouse assessed as reduction in CBP protein at 3 mg/kg, po measured after 24 hrs; type: functional, organism-based; set-up: scale not given: the % may be the effect or the level left
[29] = target: T1, Protein cereblon/CREB-binding protein; assay: In vivo PROTAC activity at p300/CRBN in human VCaP cells xenografted in CB17 SCID mouse assessed as reduction in CBP protein at 3 mg/kg, po measured after 3 hrs; type: functional, organism-based; set-up: scale not given: the % may be the effect or the level left
[30] = target: T1, Protein cereblon/CREB-binding protein; assay: In vivo PROTAC activity at p300/CRBN in human VCaP cells xenografted in CB17 SCID mouse assessed as reduction in CBP protein at 3 mg/kg, po measured after 24 hrs; type: functional, organism-based; set-up: scale not given: the % may be the effect or the level left
[31] = Plasma concentration in CB17 SCID mouse xenografted with human VCaP cells at 3 mg/kg, po measured after 3 hrs by LC-MS/MS analysis; type: ADME, organism-based
[32] = Drug exposure in CB17 SCID mouse xenografted with human VCaP cells assessed compound concentration in tumor at 1 mg/kg, po measured after 24 hrs by LC-MS/MS analysis; type: ADME, organism-based, Neoplasm; settings: in vivo, BLD = below limit of detection
VCaP [33] = assay: Antitumor activity against human VCaP cells xenografted in CB17 SCID mouse model assessed as tumor growth inhibition at 1 mg/kg, po qd scheduled 5 days in a week measured on day 63; type: functional; settings: 1512 h, time 63 day, read-out: TGI

## CC(=O)N1CCc2c(c(N3CCCc4cc(-c5cnn(C)c5)c(C(F)F)cc43)nn2[C@H]2CC[C@H](CN3CCN(c4ccc5c(c4)C(=O)N(C4CCC(=O)NC4=O)C5=O)CC3)CC2)C1 (stereo partly drawn)
[1]
  DC50: 0.3 nM
[2]
  Emax: > 95%
[3]
  Emax: > 95%
[4]
  Activity: 15%
[5]
  Activity: 76%
[6]
  Activity: 98%
[7]
  Activity: 94%
[8]
  Activity: 78%
[9]
  Activity: 51%
[10]
  Activity: 50%
[11]
  Activity: 80%
[12]
  Activity: 100%
[13]
  Activity: 100%
[14]
  half-life: 2.8 h
[15]
  AUC at 24 h: 15500 ng·h/mL
[16]
  DC50: 0.4 nM
VCaP [17]
  Ratio IC50: >50
LNCaP [18]
  Ratio IC50: >50
[19]
  Activity: 50%
LNCaP [20]
  inhibition: Dose-Dependent Effect
CWR22R [21]
  inhibition: Dose-Dependent Effect
VCaP [22]
  inhibition: Dose-Dependent Effect
CWR22R [23]
  inhibition: Dose-Dependent Effect
[24]
  inhibition at 0.001 µM: 77%
[25]
  inhibition at 0.01 µM: 70%
[26]
  inhibition at 0.01 µM: 67%
[27]
  inhibition at 0.01 µM: > 95%
[28]
  Activity: > 95%
[29]
  Activity: > 95%
[30]
  Activity: > 95%
[31]
  concentration at 3 h: 355 ng/mL
[32]
  Drug uptake: Bld
VCaP [33]
  inhibition in vivo at 1 mg/kg: 87%
